The test system of data set [1] is guinea pig isolated heart. The data set is described as follows: Guinea pig isolated electrically paced heart: effect of heart rate on AV interval and heart block. The protocol:
(§1) Guinea pig isolated hearts were prepared according to the method of Langendorff in which the coronary vasculature was perfused in a retrograde fashion at constant pressure via the aorta. Compound A was administered to the spontaneously beating hearts by infusion into the perfusion line supplying buffer to the coronary vasculature. The concentration of Compound A was adjusted by changes in the infusion rate and/or changes in the concentration of infusion solutions. The concentration of Compound A present in the perfusate was calculated by dividing the rate of Compound A infused by the coronary flow rate. Spontaneously beating heart rate and AV interval were recorded.
Guinea pig isolated hearts were prepared according to the methods described in Example 5. In the first portion of the experiment designed to determine the effect of heart rate on the negative dromotropic activity of Compound A, hearts were allowed to beat spontaneously or electrically paced either at 200 beats per minute (approximately 20% above the spontaneous rate) or at 300-360 beats per minute (approximately 80% above the spontaneous rate). Atrioventricular (AV) conduction interval (AV interval) was determined as the time from the atrial stimulus to the beginning of ventricular depolarization. The AV interval measurements were performed at each pacing rate with increased concentrations of Compound A as described in Example 5. Upon electrical pacing at 200 beats per minute, Compound A at a mean concentration of 3.9 nM produced a mean maximal 58% increase in AV interval, and heart block at a mean minimal concentration of 5.1 nM. […] The results are summarized in the table below, with data from spontaneously beating hearts included for comparative purposes: […]

Another data set deals with T1, adenosine A1 receptor (Rattus norvegicus, UniProt P25099).
T1 sequence (P25099 1-326): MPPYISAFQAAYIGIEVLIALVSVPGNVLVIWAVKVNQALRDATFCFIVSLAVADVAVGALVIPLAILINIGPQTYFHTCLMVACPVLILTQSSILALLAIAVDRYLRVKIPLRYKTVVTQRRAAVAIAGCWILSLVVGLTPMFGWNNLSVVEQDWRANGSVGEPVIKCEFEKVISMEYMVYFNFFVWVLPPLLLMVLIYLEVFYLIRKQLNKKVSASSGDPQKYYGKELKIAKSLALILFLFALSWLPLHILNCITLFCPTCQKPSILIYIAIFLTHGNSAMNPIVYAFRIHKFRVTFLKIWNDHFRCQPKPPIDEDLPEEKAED
Put plainly: Rat isolated Langendorff heart paced at 360 bpm: AV conduction (S-V interval) and coronary blood flow. Details: Rat isolated hearts were prepared according to the method of Langendorff; from tissue; host or cells: rat isolated perfused heart (Langendorff). To be noted: rat isolated heart paced at 360 beats per minute. The protocol:
Rat isolated hearts were prepared according to the method of Langendorff in which the coronary vasculature was perfused in a retrograde fashion at constant pressure via the aorta. Coronary blood flow was determined by measuring the volume of fluid leaving the heart. Heart rate was maintained at 360 beats per minute by electrical pacing of the right atrium. Atrioventricular (AV) conduction was determined as the time from the atrial stimulus to the beginning of ventricular depolarization (S-V interval).

For data set [2], the system named is guinea pig isolated spontaneously beating heart. The data set is described as follows: Guinea pig isolated spontaneously beating heart (Langendorff): heart rate and AV interval. The procedure:
as §1

For data set [3], the system named is guinea pig isolated heart. The data set is described as follows: Guinea pig isolated heart model of paroxsymal supraventricular tachycardia (200/300/200 bpm pacing). The procedure:
Guinea pig isolated hearts were prepared according to the methods described in Example 5. In the first portion of the experiment designed to determine the effect of heart rate on the negative dromotropic activity of Compound A, hearts were allowed to beat spontaneously or electrically paced either at 200 beats per minute (approximately 20% above the spontaneous rate) or at 300-360 beats per minute (approximately 80% above the spontaneous rate). Atrioventricular (AV) conduction interval (AV interval) was determined as the time from the atrial stimulus to the beginning of ventricular depolarization. The AV interval measurements were performed at each pacing rate with increased concentrations of Compound A as described in Example 5. Upon electrical pacing at 200 beats per minute, Compound A at a mean concentration of 3.9 nM produced a mean maximal 58% increase in AV interval, and heart block at a mean minimal concentration of 5.1 nM. […] The results are summarized in the table below, with data from spontaneously beating hearts included for comparative purposes:
Using the experimental conditions described in Example 6, individual hearts were paced at 200 bpm for one minute followed abruptly by one minute of pacing at 300 bpm, after which the pacing rate was returned to 200 bpm. The 300 bpm pacing cycle was intended to simulate an episode of supraventricular tachycardia. This pacing sequence was conducted in the presence of vehicle and in the presence of increasing concentrations of Compound A. The results are expressed in FIG. 2. Compound A, at a mean concentration of 2 nM that had little effect on AV interval at 200 bpm induced AV block within 30 seconds during the 300 bpm episode.

Data set [4] is described as follows: Oral bioavailability estimated from bradycardia AUC oral vs intravenous in conscious rats. To be noted: male, Sprague-Dawley, rat, in vivo. Format: in vivo, rat. The source says:
Concentration dose-effect curve data were fitted to a sigmoid curve using Graphpad PRIZM™ software to obtain the concentration or dose of test compound that produces 50% of the maximal obtainable response, in vitro EC50 or in vivo ED50 values, for activation of the adenosine A1 receptor. Responses measured to each dose were the plateau negative inotropic response to cumulative additions of test compound in the isolated left atria and the peak bradycardia in response to bolus intravenous injections of test compound in conscious rats. Oral bioavailability was estimated from pharmacodynamic responses using the expression: (Response AUCoral/Response AUCiv)(Doseiv/Doseoral), where Response AUC is the area under the curve for test compound-induced bradycardia over time.
Male Sprague-Dawley rats were anesthetized with sodium pentobarbital 50 mg/kg i.p., and indwelling catheters were surgically implanted in the carotid artery and jugular vein two days prior to each experiment. During all subsequent experiments, rats were conscious and unrestrained. The carotid artery cannula was attached to a pressure transducer and blood pressure was recorded continuously throughout each experiment using a Grass polygraph. Heart rate was derived from the blood pressure signal using a Grass tachygraph. The measured parameters were allowed from 30 to 90 minutes to stabilize before the administration of test compound.
Test compounds were administered either by oral gavage using a curved, bulbed oral dosing cannula, or by intravenous administration via the jugular vein indwelling catheter. Rats dosed orally were fasted overnight before dosing, with water available ad libitum. Because the heart rate responses following intravenous administration of test compound rapidly returned to baseline, more than one dose of test compound could be administered to each rat. However, the responses to oral administration of test compounds were of a prolonged duration and therefore only a single dose could be administered to each rat.
A comparison of the area under the bradycardia vs. time curve (AUC) following intravenous administration with the AUC following oral administration was used as a measure of oral bioavailability.

[5] abbreviates: heart rate spontaneous (appro. 170 bpm).
Where [6] appears, read: spontaneously beating guinea pig heart.

A value given as a limit tells only on which side of the number the result lay.

Consider one compound from patent US6784165B1, “Treatment of heart rhythm disturbances with N6-substituted-5′-(N-substituted) carboxamidoadenosines” (Aderis Pharmaceuticals, Inc., priority 1999, dated 2004).

A word on the EC50: it is the concentration at which the effect is half-maximal. A word on the bioavailability: it is the share of a dose that reaches the circulation, judged against a reference dose that is usually intravenous. For `CCNC(=O)[C@H]1O[C@@H](n2cnc3c(NC4CCCC4)ncnc32)[C@H](O)[C@@H]1O` [Compound A, ethyl N^6-cyclopentyladenosine-5′-uronamide], the “mean maximal increase in AV interval” value in data set [1] (paced at 200 beats per minute, at 3.9 nM) is reported as 58%. Further, in data set [1] (paced at 200 bpm), the “Mean Concentration of Compound A Required to Produce Maximal AV Interval” value is recorded as 3.9 nM and the “Mean Minimal Concentration of Compound A Required to Produce Heart Block” value (shortened to “Mean Minimal Concentration”) was 5.1 nM. Besides, the “mean maximal increase in AV interval” value in data set [1] (paced at 300-360 beats per minute, at 1.45 nM) was determined as 20%. For the same compound, in data set [1] (paced at 300-360 bpm), the “Mean Concentration of Compound A Required to Produce Maximal AV Interval” value was 1.45 nM and the “Mean Minimal Concentration” value is 2.1 nM. Further, on adenosine A1 receptor, the “mean concentration at maximal increase in S-V interval” value came out at 6.8 nM and the “mean concentration for AV conduction blockade” value is given as 8.3 nM. Also, the EC50 in data set [2] (Cavia porcellus, spontaneously beating guinea pig heart, read-out: EC50 for decrease in heart rate) was 3.2 nM. In addition, in data set [2] (setting [5]), the “Mean Concentration of Compound A Required to Produce Maximal AV Interval” value is on record as 11.7 nM and the “Mean Minimal Concentration” value is 13 nM. Further, in data set [2] (setting [6]), the “maximal decrease in heart rate” value is reported as 58% and the “maximal increase in AV interval over basal values” stood at 34%. Besides, the “effect on AV interval at 200 bpm pacing” value in data set [3] (2 nM, 200 bpm pacing before the episode) was “little effect”. Besides, the “time to AV block during the 300 bpm episode” value in data set [3] (2 nM, 300 bpm pacing) is not above 30 s. The “AV interval when pacing was returned to 200 bpm” value in data set [3] (2 nM, after the 300 bpm episode) is on record as “returned to near normal values”. For the same compound, the “mean concentration inducing AV block during the 300 bpm pacing episode” value in data set [3] (PSVT model, 300 bpm episode) came to 2 nM. The bioavailability in data set [4] is 53%.
